Series [1] in a line: Visual evaluation of discoloration of powder lotion-type antiperspirant lotions. Format: physicochemical. The protocol: Recipes shown in Table 1-1 and Table 1-2 were used to prepare powder lotion-type antiperspirant lotions and the degree of discoloration was evaluated visually. For Comparative examples, a recipe containing no trisodium ethylenediaminehydroxyethyl triacetate and a recipe containing a chelating agent EDTA-3Na.2H2O instead of trisodium ethylenediaminehydroxyethyl triacetate were investigated. The degree of discoloration was evaluated by giving ◯ to those that are within the acceptable range for skin treatment composition, and × to those that are outside of this range.

Series [2] is described as follows: Staining of clothing after application, sunlight exposure and washing (visual observation). Format: physicochemical. The protocol:
Recipes shown in Table 3-1 and Table 3-2 were used to prepare powder lotion-type antiperspirant lotions and a prescribed amount (4 micrograms/cm^2) is applied on clothing. The clothing was exposed to sunlight (10 minutes) and washed with common laundry detergent in a washing machine; the degree of staining was then evaluated by visual observation. For Comparative examples, recipes not containing polyoxyethylene polyoxypropylene 2-decyltetradecyl ether (20-28 E.O.) (10-16 P.O.) and recipes containing polyoxyethylene (E.O. 60) were investigated. The degree of staining was evaluated by giving ◯ to those that are within the acceptable range for skin treatment compositions, and × to those that are outside of this range.

With `O=C([O-])CN(CCN(CC(=O)[O-])CC(=O)O)CC(=O)[O-].[Na+].[Na+].[Na+]` [EDTA-3Na], in series [1], the “anti-discoloration effect of the ingredient in skin treatment compositions containing anti-bacterial zeolite” value is reported as “do not have the anti-discoloration effect”.
The same measure, in the same setting: in the case of `O=C([O-])CN(CCO)CCN(CC(=O)[O-])CC(=O)[O-].[Na+].[Na+].[Na+]` [trisalt ethylenediaminehydroxyethyl triacetate] it was “acts as an anti-discoloration agent”.
For the molecule “polyoxyethylene (E.O. 60) hydrogenated castor oil”, the “anti-staining effect of the ingredient in skin treatment compositions containing anti-bacterial zeolite” value in series [2] is recorded as “do not have an anti-staining effect”.
Same read-out and setting: as for “polyoxyethylene polyoxypropylene 2-decyltetradecyl ether (20-28 E.O.) (10-16 P.O.)”, the entry is “acts as an anti-staining agent”.
